Reference: patent US9096686B2, “E518A/K mutant smoothened and methods of using the same” (Genentech, Inc., priority 2010, dated 2015)
Entries after “also recorded” stand apart in the source; their conditions may differ. Where two headings read alike, the source gives them in different places.

Key:
SMO-E518K = biological target: T1, SMO-E518K (Homo sapiens, UniProt Q99835, E518K); test: Gli-luciferase reporter assay, SMO-E518K overexpression in C3H10T½ cells; format: cell-based
T1 construct: expressed in transfected cells; host or cells: C3H10T1/2 mouse fibroblasts (ATCC CCL-226), pRK5 vector, CMV promoter
T1 sequence (Q99835 28-787 E518K): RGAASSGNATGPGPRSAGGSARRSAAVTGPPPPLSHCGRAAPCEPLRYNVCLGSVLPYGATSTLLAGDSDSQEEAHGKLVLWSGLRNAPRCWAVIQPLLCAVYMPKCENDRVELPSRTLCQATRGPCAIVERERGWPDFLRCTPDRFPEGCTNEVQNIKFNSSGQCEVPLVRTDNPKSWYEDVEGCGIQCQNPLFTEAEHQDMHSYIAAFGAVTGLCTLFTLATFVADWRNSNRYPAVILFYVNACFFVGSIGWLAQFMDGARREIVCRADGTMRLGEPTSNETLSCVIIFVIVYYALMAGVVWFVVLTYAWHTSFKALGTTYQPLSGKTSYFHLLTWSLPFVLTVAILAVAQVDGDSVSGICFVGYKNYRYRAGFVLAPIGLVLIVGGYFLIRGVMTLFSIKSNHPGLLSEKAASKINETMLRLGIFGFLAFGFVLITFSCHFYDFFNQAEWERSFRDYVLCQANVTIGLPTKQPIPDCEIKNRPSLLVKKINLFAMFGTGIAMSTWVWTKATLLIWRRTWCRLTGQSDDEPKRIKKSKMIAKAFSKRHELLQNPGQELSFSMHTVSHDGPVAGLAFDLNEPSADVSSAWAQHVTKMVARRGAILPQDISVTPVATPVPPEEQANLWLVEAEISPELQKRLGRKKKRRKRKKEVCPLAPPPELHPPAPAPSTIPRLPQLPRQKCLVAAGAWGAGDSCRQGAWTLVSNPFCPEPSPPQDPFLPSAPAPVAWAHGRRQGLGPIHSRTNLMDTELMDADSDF
Procedure: (§1) Regions targeted by alanine scan mutagenesis are indicated in light grey. […] Values were normalized to maximum activity levels and represent means±SDs.
(§2) Circles mark the A-, B- and C-rings of some compounds as indicated for HhAntag.
(§3) Gli-luciferase reporter assays. Gli-luciferase reporter assays were performed as described (Rudin, C. M. et al. (2009) N. Engl. J. Med. 361:1173-1178) with the following modifications; C3H10T½ cells (ATCC, CCL-226) were seeded into six-well plates at 1.85×10^5 cells/well and values shown are the mean of four separate experiments ±1 standard deviation (SD).
(§4) These compounds were either identified in high-throughput screens (both in house and by others) or were generated by hit-to-lead optimization of screening hits using traditional medicinal chemistry methods. C3H10T½ cells were co-transfected with wild type or mutant SMO expression vectors together with a Gli-luciferase reporter construct (Murone M. et al. (1999) Curr. Biol. 9(2):76-84), and pathway activation was measured in the presence or absence of 1 μM compound.

medulloblastoma = medulloblastoma patient, widespread metastatic disease; cited from earlier work
SMO-E518A = biological target: T2, SMO-E518A (Homo sapiens, UniProt Q99835, E518A); test: Gli-luciferase reporter assay, SMO-E518A in C3H10T½ cells; format: cell-based; conditions: dose response; signaling activity despite 1 μM
T2 construct: expressed in transfected cells; host or cells: C3H10T1/2 mouse fibroblasts (ATCC CCL-226), pRK5 vector, CMV promoter
T2 sequence (Q99835 28-787 E518A): as the sequence (Q99835 28-787 E518K) above, with K491A counted along it
Procedure: as §1, §3

[1] = Plasma pharmacokinetics after single oral dose in mice; format: in vivo
Excerpt: as §2

SMO-D473H = biological target: T3, SMO-D473H (Homo sapiens, UniProt Q99835, D473H); test: Gli-luciferase reporter assay, SMO-D473H overexpression in C3H10T½ cells; format: cell-based
T3 construct: expressed in transfected cells; host or cells: C3H10T1/2 mouse fibroblasts (ATCC CCL-226), pRK5 vector, CMV promoter
T3 sequence (Q99835 28-787 D473H): as the sequence (Q99835 28-787 E518K) above, with D446H, K491E counted along it
Procedure: as §2, §3, §4

[2] = Metabolism by human hepatocytes; format: in vitro ADME; conditions: unpublished observation
SMO-WT = biological target: T4, SMO-WT (Homo sapiens, UniProt Q99835); test: Gli-luciferase reporter assay, SMO-WT overexpression in C3H10T½ cells; format: cell-based; conditions: 1 μM compound
T4 construct: expressed in transfected cells; host or cells: C3H10T1/2 mouse fibroblasts (ATCC CCL-226), pRK5 vector, CMV promoter
T4 sequence (Q99835 28-787): as the sequence (Q99835 28-787 E518K) above, with K491E counted along it
Procedure: as §2, §3, §4

Molecule	potency against SMO-E518K (inhibition of Gli-luciferase activity) (SMO-E518K; 1 μM compound, C3H10T½ cells)	pharmacokinetic properties in mice [1]	potency against SMO-D473H (inhibition of Gli-luciferase activity) (SMO-D473H; 1 μM compound, C3H10T½ cells)	further results
CS(=O)(=O)c1ccc(C(=O)Nc2ccc(Cl)c(-c3ccccn3)c2)c(Cl)c1 [GDC-0449]	–	–	–	resistance of SMO-E518K to the inhibitor, Gli-luciferase reporter activity (SMO-E518K; dose response, up to 1 μM): completely resistant; clinical response to treatment (medulloblastoma): dramatic and rapid response; resistance of SMO-E518A to the inhibitor, Gli-luciferase reporter activity (SMO-E518A): partially resistant
C[C@@H]1CN(c2ccc(C(=O)Nc3ccc(Cl)c(NC(=O)c4cccc(Cl)c4)c3)cn2)C[C@H](C)N1 [compound 5]	potent	good pharmacokinetic properties	potent; also recorded: improved potencies	half-life ([1]; mouse, single oral 100 mg kg-1 dose, plasma): 22 h
HhAntag	essentially equipotent against all SMO alleles	–	essentially equipotent against all SMO alleles	metabolism by human hepatocytes [2]: rapidly metabolized; activity against wild type SMO (inhibition of Gli-luciferase activity) (SMO-WT): essentially equipotent against all SMO alleles
CC1=C2C[C@H]3[C@@H](CC=C4C[C@@H](O)CC[C@@]43C)[C@@H]2CC[C@]12O[C@@H]1C[C@H](C)CN[C@H]1[C@H]2C [cyclopamine]	–	–	–	potency against SMO-E518K (inhibition of Gli-luciferase activity) (SMO-E518K): completely resistant; potency against SMO-D473H (inhibition of Gli-luciferase activity) (SMO-D473H): partially resistant
Cc1nn(-c2ccccc2)c(C)c1/C=N/N1CCN(Cc2ccccc2)CC1 [SANT-1]	sensitive	–	partially resistant	–
O=C(Nc1ccc(Cl)c(NC(=O)c2cccc(Cl)c2)c1)c1ccc(N2CCC(O)CC2)nc1 [compound 4]	potent	good pharmacokinetic properties	potent; also recorded: improved potencies	–
